Results reported in article PMC5423977, “Safety, pharmacokinetics, and pharmacodynamics of BMS-986142, a novel reversible BTK inhibitor, in healthy participants” (European Journal of Clinical Pharmacology, 2017).

Assay: Safety and tolerability (adverse events), Study 1 SAD in healthy participants
Type: in vivo, human
[1] = Study 1 SAD group, BMS-986142-treated
[2] = Study 1 SAD, all BMS-986142 doses, n = 36

## Cc1c(-c2c(F)cc(C(N)=O)c3[nH]c4c(c23)CC[C@H](C(C)(C)O)C4)cccc1-n1c(=O)c2cccc(F)c2n(C)c1=O [BMS-986142, 6-fluoro-5-(R)-(3-(S)-(8-fluoro-1-methyl-2,4-dioxo-1,2-dihydroquinazolin-3(4H)-yl)-2-methylphenyl)-2-(S)-(2-hydroxypropan-2-yl)-2,3,4,9-tetrahydro-1H-carbazole-8-carboxamide]
SAD 5 mg, n = 6
  AE SOC: Gastrointestinal Disorders: 0 n (%)
  AE SOC: General disorders and administration site conditions: 0 n (%)
  AE SOC: Infections and infestations: 0 n (%)
  AE SOC: Injury, poisoning and procedural complications: 0 n (%)
  AE SOC: Musculoskeletal and connective tissue disorders: 0 n (%)
  AE SOC: Nervous system disorders: 0 n (%)
  AE SOC: Renal and urinary disorders: 0 n (%)
  AE SOC: Respiratory, thoracic and mediastinal disorders: 0 n (%)
  AE: Aphthous stomatitis: 0 n (%)
  AE: Chest pain: 0 n (%)
  AE: Contusion: 0 n (%)
  AE: Cough: 0 n (%)
  AE: Diarrhoea: 0 n (%)
  AE: Dizziness: 0 n (%)
  AE: Headache: 0 n (%)
  AE: Lip Dry: 0 n (%)
  AE: Muscle spasms: 0 n (%)
  AE: Nausea: 0 n (%)
  AE: Paraesthesia: 0 n (%)
  AE: Polyuria: 0 n (%)
  AE: Syncope: 0 n (%)
  AE: Tension headache: 0 n (%)
  AE: Thermal burn: 0 n (%)
  AE: Toothache: 0 n (%)
  AE: Upper respiratory tract infection: 0 n (%)
  AE: Vomiting: 0 n (%)
  Total participants with an event: 0 n (%)
SAD 15 mg, n = 6
  AE SOC: Gastrointestinal Disorders: 1 (16.7) n (%)
  AE SOC: General disorders and administration site conditions: 0 n (%)
  AE SOC: Infections and infestations: 0 n (%)
  AE SOC: Injury, poisoning and procedural complications: 0 n (%)
  AE SOC: Musculoskeletal and connective tissue disorders: 0 n (%)
  AE SOC: Nervous system disorders: 0 n (%)
  AE SOC: Renal and urinary disorders: 0 n (%)
  AE SOC: Respiratory, thoracic and mediastinal disorders: 0 n (%)
  AE: Aphthous stomatitis: 1 (16.7) n (%)
  AE: Chest pain: 0 n (%)
  AE: Contusion: 0 n (%)
  AE: Cough: 0 n (%)
  AE: Diarrhoea: 0 n (%)
  AE: Dizziness: 0 n (%)
  AE: Headache: 0 n (%)
  AE: Lip Dry: 0 n (%)
  AE: Muscle spasms: 0 n (%)
  AE: Nausea: 0 n (%)
  AE: Paraesthesia: 0 n (%)
  AE: Polyuria: 0 n (%)
  AE: Syncope: 0 n (%)
  AE: Tension headache: 0 n (%)
  AE: Thermal burn: 0 n (%)
  AE: Toothache: 0 n (%)
  AE: Upper respiratory tract infection: 0 n (%)
  AE: Vomiting: 0 n (%)
  Total participants with an event: 1 (16.7) n (%)
SAD 50 mg, n = 6
  AE SOC: Gastrointestinal Disorders: 0 n (%)
  AE SOC: General disorders and administration site conditions: 0 n (%)
  AE SOC: Infections and infestations: 1 (16.7) n (%)
  AE SOC: Injury, poisoning and procedural complications: 1 (16.7) n (%)
  AE SOC: Musculoskeletal and connective tissue disorders: 1 (16.7) n (%)
  AE SOC: Nervous system disorders: 2 (33.3) n (%)
  AE SOC: Renal and urinary disorders: 0 n (%)
  AE SOC: Respiratory, thoracic and mediastinal disorders: 0 n (%)
  AE: Aphthous stomatitis: 0 n (%)
  AE: Chest pain: 0 n (%)
  AE: Contusion: 1 (16.7) n (%)
  AE: Cough: 0 n (%)
  AE: Diarrhoea: 0 n (%)
  AE: Dizziness: 0 n (%)
  AE: Headache: 2 (33.3) n (%)
  AE: Lip Dry: 0 n (%)
  AE: Muscle spasms: 1 (16.7) n (%)
  AE: Nausea: 0 n (%)
  AE: Paraesthesia: 0 n (%)
  AE: Polyuria: 0 n (%)
  AE: Syncope: 0 n (%)
  AE: Tension headache: 0 n (%)
  AE: Thermal burn: 1 (16.7) n (%)
  AE: Toothache: 0 n (%)
  AE: Upper respiratory tract infection: 1 (16.7) n (%)
  AE: Vomiting: 0 n (%)
  Total participants with an event: 2 (33.3) n (%)
SAD 100 mg, n = 6
  AE SOC: Gastrointestinal Disorders: 1 (16.7) n (%)
  AE SOC: General disorders and administration site conditions: 0 n (%)
  AE SOC: Infections and infestations: 0 n (%)
  AE SOC: Injury, poisoning and procedural complications: 0 n (%)
  AE SOC: Musculoskeletal and connective tissue disorders: 0 n (%)
  AE SOC: Nervous system disorders: 1 (16.7) n (%)
  AE SOC: Renal and urinary disorders: 1 (16.7) n (%)
  AE SOC: Respiratory, thoracic and mediastinal disorders: 0 n (%)
  AE: Aphthous stomatitis: 0 n (%)
  AE: Chest pain: 0 n (%)
  AE: Contusion: 0 n (%)
  AE: Cough: 0 n (%)
  AE: Diarrhoea: 0 n (%)
  AE: Dizziness: 0 n (%)
  AE: Headache: 0 n (%)
  AE: Lip Dry: 0 n (%)
  AE: Muscle spasms: 0 n (%)
  AE: Nausea: 0 n (%)
  AE: Paraesthesia: 0 n (%)
  AE: Polyuria: 1 (16.7) n (%)
  AE: Syncope: 0 n (%)
  AE: Tension headache: 1 (16.7) n (%)
  AE: Thermal burn: 0 n (%)
  AE: Toothache: 0 n (%)
  AE: Upper respiratory tract infection: 0 n (%)
  AE: Vomiting: 1 (16.7) n (%)
  Total participants with an event: 2 (33.3) n (%)
SAD 300 mg, n = 6
  AE SOC: Gastrointestinal Disorders: 1 (16.7) n (%)
  AE SOC: General disorders and administration site conditions: 0 n (%)
  AE SOC: Infections and infestations: 0 n (%)
  AE SOC: Injury, poisoning and procedural complications: 0 n (%)
  AE SOC: Musculoskeletal and connective tissue disorders: 0 n (%)
  AE SOC: Nervous system disorders: 0 n (%)
  AE SOC: Renal and urinary disorders: 0 n (%)
  AE SOC: Respiratory, thoracic and mediastinal disorders: 0 n (%)
  AE: Aphthous stomatitis: 0 n (%)
  AE: Chest pain: 0 n (%)
  AE: Contusion: 0 n (%)
  AE: Cough: 0 n (%)
  AE: Diarrhoea: 0 n (%)
  AE: Dizziness: 0 n (%)
  AE: Headache: 0 n (%)
  AE: Lip Dry: 1 (16.7) n (%)
  AE: Muscle spasms: 0 n (%)
  AE: Nausea: 0 n (%)
  AE: Paraesthesia: 0 n (%)
  AE: Polyuria: 0 n (%)
  AE: Syncope: 0 n (%)
  AE: Tension headache: 0 n (%)
  AE: Thermal burn: 0 n (%)
  AE: Toothache: 0 n (%)
  AE: Upper respiratory tract infection: 0 n (%)
  AE: Vomiting: 0 n (%)
  Total participants with an event: 1 (16.7) n (%)
SAD 900 mg, n = 6
  AE SOC: Gastrointestinal Disorders: 2 (33.3) n (%)
  AE SOC: General disorders and administration site conditions: 1 (16.7) n (%)
  AE SOC: Infections and infestations: 1 (16.7) n (%)
  AE SOC: Injury, poisoning and procedural complications: 0 n (%)
  AE SOC: Musculoskeletal and connective tissue disorders: 0 n (%)
  AE SOC: Nervous system disorders: 2 (33.3) n (%)
  AE SOC: Renal and urinary disorders: 0 n (%)
  AE SOC: Respiratory, thoracic and mediastinal disorders: 1 (16.7) n (%)
  AE: Aphthous stomatitis: 0 n (%)
  AE: Chest pain: 1 (16.7) n (%)
  AE: Contusion: 0 n (%)
  AE: Cough: 1 (16.7) n (%)
  AE: Diarrhoea: 1 (16.7) n (%)
  AE: Dizziness: 1 (16.7) n (%)
  AE: Headache: 2 (33.3) n (%)
  AE: Lip Dry: 0 n (%)
  AE: Muscle spasms: 0 n (%)
  AE: Nausea: 1 (16.7) n (%)
  AE: Paraesthesia: 1 (16.7) n (%)
  AE: Polyuria: 0 n (%)
  AE: Syncope: 0 n (%)
  AE: Tension headache: 0 n (%)
  AE: Thermal burn: 0 n (%)
  AE: Toothache: 0 n (%)
  AE: Upper respiratory tract infection: 1 (16.7) n (%)
  AE: Vomiting: 0 n (%)
  Total participants with an event: 2 (33.3) n (%)
SAD any dose, n = 36
  AE SOC: Gastrointestinal Disorders: 5 (13.9) n (%)
  AE SOC: General disorders and administration site conditions: 1 (2.8) n (%)
  AE SOC: Infections and infestations: 2 (5.6) n (%)
  AE SOC: Injury, poisoning and procedural complications: 1 (2.8) n (%)
  AE SOC: Musculoskeletal and connective tissue disorders: 1 (2.8) n (%)
  AE SOC: Nervous system disorders: 5 (13.9) n (%)
  AE SOC: Renal and urinary disorders: 1 (2.8) n (%)
  AE SOC: Respiratory, thoracic and mediastinal disorders: 1 (2.8) n (%)
  AE: Aphthous stomatitis: 1 (2.8) n (%)
  AE: Chest pain: 1 (2.8) n (%)
  AE: Contusion: 1 (2.8) n (%)
  AE: Cough: 1 (2.8) n (%)
  AE: Diarrhoea: 1 (2.8) n (%)
  AE: Dizziness: 1 (2.8) n (%)
  AE: Headache: 4 (11.1) n (%)
  AE: Lip Dry: 1 (2.8) n (%)
  AE: Muscle spasms: 1 (2.8) n (%)
  AE: Nausea: 1 (2.8) n (%)
  AE: Paraesthesia: 1 (2.8) n (%)
  AE: Polyuria: 1 (2.8) n (%)
  AE: Syncope: 0 n (%)
  AE: Tension headache: 1 (2.8) n (%)
  AE: Thermal burn: 1 (2.8) n (%)
  AE: Toothache: 0 n (%)
  AE: Upper respiratory tract infection: 2 (5.6) n (%)
  AE: Vomiting: 1 (2.8) n (%)
  Total participants with an event: 8 (22.2) n (%)
[1]
  Number of AEs reported: 22 AEs
  Participants with AEs: 8 participants
[2]
  AE: Cough: 1 (2.8) n (%)
  AE: Diarrhea: 1 (2.8) n (%)
  AE: Dizziness: 1 (2.8) n (%)
  AE: Headache/tension headache: 5 (13.9) n (%)
  AE: Nausea: 1 (2.8) n (%)
  AE: Thermal burns: 1 (2.8) n (%)
  AE: Upper respiratory tract infection: 2 (5.6) n (%)
  Subjects with AEs: 8 (22.2) n (%)
Healthy participants, alone and in combination with MTX (studies 1 and 2)
  Tolerability: generally well tolerated
